Tests used:
[1] = tested on: cytochrome p450 (CYP) IAI gene; assay: MC RT-PCR with Celi competitive templates, induction of CYPIAI gene expression; assay type: cell-based, human; details: BEP2D cells incubated with β-napthoflavone (10 μM); control 0.1% DMSO; about the same cDNA loading by GAPDH reference gene
Description: In a second set of experiments, multiplex competitive reverse transcriptase polymerase chain reaction (MC RT-PCR) with competitive templates were prepared by the Celi method to evaluate the cytochrome p450 (CYP) IAI gene in β-napthoflavone-exposed BEP2D cells. The induction of CYPIAI gene expression was evaluated using both MC RT-PCR with Celi competitive templates, and Northern analysis. Competitive templates were prepared for both the CYPIAI and GAPDH genes. The primers used to prepare the competitive template for GAPDH were: […]
The PCR amplification conditions were the same as described for experiments using the competitive templates prepared for GAPDH and GSHPx by the Higuchi method except the annealing temperature was 55 degrees centigrade and the amplification was carried out for 38 cycles.
Because the native and competitive templates separate without prior restriction endonuclease digestion, samples were taken directly from the PCR reaction tube and applied to ethidium bromide stained 3% Nusieve, 1% LE agarose gels. It was then possible to quantify the products by taking a negative photograph of the gel using Polaroid 665 positive/negative instant film, subjecting the negative photograph to densitometry. […]

[2] = tested on: cytochrome p450 IA1 (CYPIAI); assay: Northern analysis of CYPIAI gene expression; assay type: cell-based, human; details: BEP2D cells incubated with β-napthoflavone (10 μM); control 0.1% DMSO; 32P-labeled CYPIAI cDNA probe
Description: RNA from BEP2D cells incubated for varying times with β-napthoflavone (10 μM) was either electrophoresed on a 1% LE formaldehyde denaturing gel for Northern analysis or MC RT-PCR amplified, as described above. For Northern analysis, following transfer of the RNA to GeneScreen, the filters were hybridized with ^32P-labeled CYPLAI cDNA.

In the case of `O=c1cc(-c2ccccc2)oc2ccc3ccccc3c12` [β-napthoflavone], the “band representing the native CYPIAI gene, exposed cells compared to control cells” value [1] is reported as “much more strongly represented” and the “gene expression of the CYPIAI gene” value [2] is reported as “increase”.
